Data published in ChEMBL document CHEMBL1909294, “Translating clinical findings into knowledge in drug safety evaluation--drug induced liver injury prediction system (DILIps)” (PLoS Comput Biol, 2011).

Assays:
Hepatotoxicity [1] = tested on: Hepatotoxicity;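 as to HepSE cholelithiasis: hepatic side effect score for cholelithiasis, drawn from the DILIps training data for predicting drug-induced liver injury; call rule not given here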; as to HepSE hepatic failure: call rule not given here;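 as to HepSE hepatitis: Hepatitis-related hepatic side effect score taken from the training data of DILIps, a prediction system for drug-induced liver injury; call rule not given here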;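 as to HepSE hepatomegaly: hepatic side effect score for hepatomegaly, taken from the training set of the DILIps drug-induced liver injury prediction system; call rule not given here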;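 as to HepSE jaundice: Jaundice-related hepatic side-effect score drawn from the training data of the DILIps (drug-induced liver injury prediction system); call rule not given here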; as to HepSE liver disease: call rule not given here;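 as to HepSE liver function tests abnormal: hepatic side effect score taken from the DILIps (drug-induced liver injury prediction system) training data, here covering abnormal liver function test findings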
Hepatotoxicity [2] = tested on: Hepatotoxicity; remark: listed apart in the source;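 as to HepSE cholelithiasis: hepatic side effect score for cholelithiasis, drawn from the DILIps training data for predicting drug-induced liver injury; call rule not given here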; as to HepSE hepatic failure: call rule not given here;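 as to HepSE hepatitis: Hepatitis-related hepatic side effect score taken from the training data of DILIps, a prediction system for drug-induced liver injury; call rule not given here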;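 as to HepSE hepatomegaly: hepatic side effect score for hepatomegaly, taken from the training set of the DILIps drug-induced liver injury prediction system; call rule not given here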;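 as to HepSE jaundice: Jaundice-related hepatic side-effect score drawn from the training data of the DILIps (drug-induced liver injury prediction system); call rule not given here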; as to HepSE liver disease: call rule not given here;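 as to HepSE liver function tests abnormal: hepatic side effect score taken from the DILIps (drug-induced liver injury prediction system) training data, here covering abnormal liver function test findings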
Hepatotoxicity [3] = tested on: Hepatotoxicity; remark: listed apart in the source;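 as to HepSE cholelithiasis: hepatic side effect score for cholelithiasis, drawn from the DILIps training data for predicting drug-induced liver injury; call rule not given here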; as to HepSE hepatic failure: call rule not given here;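 as to HepSE hepatitis: Hepatitis-related hepatic side effect score taken from the training data of DILIps, a prediction system for drug-induced liver injury; call rule not given here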;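 as to HepSE hepatomegaly: hepatic side effect score for hepatomegaly, taken from the training set of the DILIps drug-induced liver injury prediction system; call rule not given here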; as to HepSE liver disease: call rule not given here;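 as to HepSE liver function tests abnormal: hepatic side effect score taken from the DILIps (drug-induced liver injury prediction system) training data, here covering abnormal liver function test findings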
Hepatotoxicity [4] = tested on: Hepatotoxicity; remark: listed apart in the source;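 as to HepSE cholelithiasis: hepatic side effect score for cholelithiasis, drawn from the DILIps training data for predicting drug-induced liver injury; call rule not given here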; as to HepSE hepatic failure: call rule not given here;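 as to HepSE hepatitis: Hepatitis-related hepatic side effect score taken from the training data of DILIps, a prediction system for drug-induced liver injury; call rule not given here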;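 as to HepSE hepatomegaly: hepatic side effect score for hepatomegaly, taken from the training set of the DILIps drug-induced liver injury prediction system; call rule not given here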; as to HepSE liver disease: call rule not given here;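 as to HepSE liver function tests abnormal: hepatic side effect score taken from the DILIps (drug-induced liver injury prediction system) training data, here covering abnormal liver function test findings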
Hepatotoxicity [5] = tested on: Hepatotoxicity; remark: listed apart in the source; as to HepSE hepatic failure: call rule not given here; as to HepSE liver disease: call rule not given here
Hepatotoxicity [6] = tested on: Hepatotoxicity; remark: listed apart in the source; as to HepSE hepatic failure: call rule not given here; as to HepSE liver disease: call rule not given here
Hepatotoxicity [7] = tested on: Hepatotoxicity; remark: listed apart in the source
Hepatotoxicity [8] = tested on: Hepatotoxicity; remark: listed apart in the source
Hepatotoxicity [9] = tested on: Hepatotoxicity; remark: listed apart in the source
Hepatotoxicity [10] = tested on: Hepatotoxicity; remark: listed apart in the source
Hepatotoxicity [11] = tested on: Hepatotoxicity; remark: listed apart in the source
Hepatotoxicity [12] = tested on: Hepatotoxicity; remark: listed apart in the source
Hepatotoxicity [13] = tested on: Hepatotoxicity; remark: listed apart in the source
Hepatotoxicity [14] = tested on: Hepatotoxicity; remark: listed apart in the source

| SMILES | HepSE_hepatic failure (Hepatotoxicity [1]) | HepSE_hepatitis (Hepatotoxicity [2]) | HepSE_liver disease (Hepatotoxicity [3]) | HepSE_cholelithiasis (Hepatotoxicity [4]) | HepSE_hepatomegaly (Hepatotoxicity [5]) | HepSE_hepatic necrosis (Hepatotoxicity [6]) | HepSE_bilirubinemia (Hepatotoxicity [7]) | HepSE_liver function tests abnormal (Hepatotoxicity [8]) | HepSE_jaundice (Hepatotoxicity [9]) | HepSE_elevated liver function tests (Hepatotoxicity [10]) | HepSE_liver fatty (Hepatotoxicity [11]) | HepSE_cholecystitis (Hepatotoxicity [12]) | HepSE_Combined Scores (Hepatotoxicity [13]) | HepSE_cirrhosis (Hepatotoxicity [14]) | also measured |
| --- | --- | --- | --- | --- | --- | --- | --- | --- | --- | --- | --- | --- | --- | --- | --- |
| CC1=C(C(=O)O)N2C(=O)[C@@H](NC(=O)[C@H](N)c3ccc(O)cc3)[C@H]2SC1 [CEFADROXIL] | 1 | 0 | 0 | 0 | 0 | 0 | 0 | 0 | 0 | 0 | 0 | 0 | 1 | 0 |  |
| CC(C)(S)[C@@H](N)C(=O)O [PENICILLAMINE] | 1 | 0 | 0 | 0 | 0 | 0 | 0 | 0 | 0 | 0 | 0 | 0 | 1 | 0 |  |
| CCCC(C)(COC(N)=O)COC(=O)NC(C)C (stereo unspecified) [CARISOPRODOL] | 0 | 0 | 0 | 0 | 0 | 0 | 0 | 0 | 0 | 0 | 0 | 0 | 0 | 0 |  |
| COC(=O)Nc1nc2ccc(C(=O)c3ccccc3)cc2[nH]1 [MEBENDAZOLE] | 0 | 1 | 0 | 0 | 0 | 0 | 0 | 0 | 0 | 0 | 0 | 0 | 1 | 0 |  |
| S=P(N1CC1)(N1CC1)N1CC1 [THIOTEPA] | 0 | 0 | 0 | 0 | 0 | 0 | 1 | 0 | 0 | 0 | 0 | 0 | 1 | 0 |  |
| Cc1ccc(C(=O)c2cc(O)c(O)c([N+](=O)[O-])c2)cc1 [TOLCAPONE] |  |  |  |  |  |  |  |  |  |  |  |  |  |  | HepSE_hepatic failure (Hepatotoxicity [1]; Liver): 0; HepSE_hepatitis (Hepatotoxicity [2]; Liver): 0; HepSE_liver disease (Hepatotoxicity [3]; Liver): 0; HepSE_cholelithiasis (Hepatotoxicity [4]; Liver): 1; HepSE_hepatomegaly (Hepatotoxicity [5]; Liver): 0; HepSE_hepatic necrosis (Hepatotoxicity [6]; Liver): 0; HepSE_bilirubinemia (Hepatotoxicity [7]; Liver): 0; HepSE_liver function tests abnormal (Hepatotoxicity [8]; Liver): 0; HepSE_jaundice (Hepatotoxicity [9]; Liver): 0; HepSE_elevated liver function tests (Hepatotoxicity [10]; Liver): 0; HepSE_liver fatty (Hepatotoxicity [11]; Liver): 0; HepSE_cholecystitis (Hepatotoxicity [12]; Liver): 1; HepSE_Combined Scores (Hepatotoxicity [13]; Liver): 2; HepSE_cirrhosis (Hepatotoxicity [14]; Liver): 0 |
| CCN(Cc1ccncc1)C(=O)C(CO)c1ccccc1 (stereo unspecified) [TROPICAMIDE] | 0 | 0 | 0 | 0 | 0 | 0 | 0 |  | 0 |  | 0 | 0 | 0 | 0 | HepSE_liver function tests abnormal (Hepatotoxicity [8]; Liver): 0; HepSE_elevated liver function tests (Hepatotoxicity [10]; Liver): 0 |
| CN(C)C(=O)Oc1ccc[n+](C)c1 [PYRIDOSTIGMINE] | 0 | 0 | 0 | 0 | 0 | 0 | 0 | 0 | 0 | 0 | 0 | 0 | 0 | 0 |  |
| CN(C)CCCN1c2ccccc2Sc2ccc(Cl)cc21 [CHLORPROMAZINE] | 0 | 0 | 1 | 0 | 0 | 0 | 0 | 0 | 1 | 0 | 0 | 0 | 3 | 1 |  |
